The values below come from patent publication US10363239B2, “Method for inhibiting growth of cancer cells” (Pain Therapeutics, Inc., priority 2013, dated 2019).

In the first assay the target is FLNA pentapeptide of SEQ ID NO: 1 (Bn-VAKGL) (Homo sapiens, UniProt P21333). Description: FITC-NLX-based FLNA screening assay (inhibition of FITC-naloxone binding to Bn-VAKGL on streptavidin plates). To be noted: read-out: Percent Binding Inhibition, FLNA-binding compound 0.01 μM; 10 nM FITC-NLX.
Broadly, the inhibition is the percentage by which the read-out fell short of the control. Take `O=C(c1ccc([N+](=O)[O-])cc1)N1CCC2(CC1)OCCN2C(=O)c1ccc([N+](=O)[O-])cc1` [Compound C0032]: the inhibition at 0.01 µM was 41.5%.

Regarding `N#Cc1ccccc1S(=O)(=O)N1CCC2(CC1)OCCN2S(=O)(=O)c1ccccc1C#N` [Compound C0004], the inhibition at 0.01 µM amounted to 37.6%.

On to `COc1ccc(CCC(=O)CC2c3c(cc4c(c3OC)OCO4)CC[N+]2(C)C)c(OC)c1` (stereo not drawn) [Compound B0043], for which the inhibition at 0.01 µM was 30.8%.

Consider `C=CCN1CCC2(CC1)OCCN2S(=O)(=O)c1ccc(OC)cc1` [Compound C0091M], for which the inhibition at 0.01 µM was found to be 38.1%.

Still in this assay, the particulars now being: read-out: Percent Binding Inhibition, FLNA-binding compound 0.1 μM; 10 nM FITC-NLX.
Turning to `O=C(c1ccc([N+](=O)[O-])cc1)N1CCC2(CC1)OCCN2C(=O)c1ccc([N+](=O)[O-])cc1` [Compound C0032], the inhibition at 0.1 µM is 50.5%.

Take `N#Cc1ccccc1S(=O)(=O)N1CCC2(CC1)OCCN2S(=O)(=O)c1ccccc1C#N` [Compound C0004]: the inhibition at 0.1 µM amounted to 42.3%.

As for `COc1ccc(CCC(=O)CC2c3c(cc4c(c3OC)OCO4)CC[N+]2(C)C)c(OC)c1` (stereo not drawn) [Compound B0043], the inhibition at 0.1 µM stood at 39.2%.

In the case of `C=CCN1CCC2(CC1)OCCN2S(=O)(=O)c1ccc(OC)cc1` [Compound C0091M], the inhibition at 0.1 µM turned out to be 39.8%.

Still in this assay, the particulars now being: read-out: Percent Binding Inhibition, FLNA-binding compound 1 μM; 10 nM FITC-NLX.
On to `O=C(c1ccc([N+](=O)[O-])cc1)N1CCC2(CC1)OCCN2C(=O)c1ccc([N+](=O)[O-])cc1` [Compound C0032], for which the inhibition at 1 µM amounted to 55.3%.

For `N#Cc1ccccc1S(=O)(=O)N1CCC2(CC1)OCCN2S(=O)(=O)c1ccccc1C#N` [Compound C0004], the inhibition at 1 µM is 44.7%.

As to `COc1ccc(CCC(=O)CC2c3c(cc4c(c3OC)OCO4)CC[N+]2(C)C)c(OC)c1` (stereo not drawn) [Compound B0043], the inhibition at 1 µM was found to be 46.8%.

For `C=CCN1CCC2(CC1)OCCN2S(=O)(=O)c1ccc(OC)cc1` [Compound C0091M], the inhibition at 1 µM came out at 46.3%.

Another assay concerns mu opiate receptor (MOR). In words: MOR agonist activity using [35S]GTPγS binding assay in striatal membranes. The class given is biochemical. To be noted: Series B; 0.1 μM compound, relative to DAMGO. In outline:
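Striatal membranes (200 μg) were preincubated 5 min at 30 °C in HEPES pH 7.5 with 100 mM NaCl, 1 mM MgCl2 and 0.5 nM [35S]GTPγS, then 5 min more with 0.1–10 μM compound. Gαo was immunoprecipitated and bound radioactivity counted by scintillation.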
As for `COc1ccc(CCC(=O)CC2c3c(cc4c(c3OC)OCO4)CC[N+]2(C)C)c(OC)c1` (stereo not drawn) [Compound B0043], the “% DAMGO (0.1 μM)” value is given as 42.4%.

The assay is the same for the next values; noted with them: Series B; 0.1 μM compound; [35S]GTPγS binding to Gαo, striatal membranes.
Take `COc1ccc(CCC(=O)CC2c3c(cc4c(c3OC)OCO4)CC[N+]2(C)C)c(OC)c1` (stereo not drawn) [Compound B0043]: the “MOR agonist activity, percent [35S]GTPγS binding at the stated compound concentration” value (“MOR agonist activity, percent” for short) turned out to be 74.8%.

The assay is the same for the next values; noted with them: Series B; 1 μM compound + 1 μM β-FNA.
On to `COc1ccc(CCC(=O)CC2c3c(cc4c(c3OC)OCO4)CC[N+]2(C)C)c(OC)c1` (stereo not drawn) [Compound B0043], for which the “MOR agonist activity, percent” value was 166.4%.

The same assay, now with this note: Series B; 1 μM compound + β-FNA, relative to DAMGO + BFNA.
Turning to `COc1ccc(CCC(=O)CC2c3c(cc4c(c3OC)OCO4)CC[N+]2(C)C)c(OC)c1` (stereo not drawn) [Compound B0043], the “% DAMGO + BFNA” value is 632.7%.

Staying with this assay, now noted: Series B; 1 μM compound, relative to DAMGO.
As to `COc1ccc(CCC(=O)CC2c3c(cc4c(c3OC)OCO4)CC[N+]2(C)C)c(OC)c1` (stereo not drawn) [Compound B0043], the “% DAMGO (1 μM)” value came out at 97.6%.

The same assay, now with this note: Series B; 1 μM compound; [35S]GTPγS binding to Gαo, striatal membranes.
In the case of `COc1ccc(CCC(=O)CC2c3c(cc4c(c3OC)OCO4)CC[N+]2(C)C)c(OC)c1` (stereo not drawn) [Compound B0043], the “MOR agonist activity, percent” value amounted to 248.1%.

Still in this assay, the particulars now being: Series C-1; 0.1 μM compound, relative to DAMGO.
On to `O=C(c1ccc([N+](=O)[O-])cc1)N1CCC2(CC1)OCCN2C(=O)c1ccc([N+](=O)[O-])cc1` [Compound C0032], for which the “% DAMGO (0.1 μM)” value was 92.8%.

Consider `N#Cc1ccccc1S(=O)(=O)N1CCC2(CC1)OCCN2S(=O)(=O)c1ccccc1C#N` [Compound C0004], for which the “% DAMGO (0.1 μM)” value came out at 72.1%.

The assay is the same for the next values; noted with them: Series C-1; 0.1 μM compound; [35S]GTPγS binding to Gαo, striatal membranes.
As to `O=C(c1ccc([N+](=O)[O-])cc1)N1CCC2(CC1)OCCN2C(=O)c1ccc([N+](=O)[O-])cc1` [Compound C0032], the “Concentration of FLNA-Binding Compound as Agonist 0.1 μM” value came out at 145.4%.

In the case of `N#Cc1ccccc1S(=O)(=O)N1CCC2(CC1)OCCN2S(=O)(=O)c1ccccc1C#N` [Compound C0004], the “Concentration of FLNA-Binding Compound as Agonist 0.1 μM” value was found to be 122.0%.

The same assay, now with this note: Series C-1; 1 μM compound + 1 μM β-FNA.
For `O=C(c1ccc([N+](=O)[O-])cc1)N1CCC2(CC1)OCCN2C(=O)c1ccc([N+](=O)[O-])cc1` [Compound C0032], the “Concentration of FLNA-Binding Compound as Agonist 1 μM + BFNA” value turned out to be 80.9%.

For `N#Cc1ccccc1S(=O)(=O)N1CCC2(CC1)OCCN2S(=O)(=O)c1ccccc1C#N` [Compound C0004], the “Concentration of FLNA-Binding Compound as Agonist 1 μM + BFNA” value is recorded as 65.8%.

The assay is the same for the next values; noted with them: Series C-1; 1 μM compound + β-FNA, relative to DAMGO + BFNA.
With `O=C(c1ccc([N+](=O)[O-])cc1)N1CCC2(CC1)OCCN2C(=O)c1ccc([N+](=O)[O-])cc1` [Compound C0032], the “% DAMGO + BFNA” value is 248.2%.

In the case of `N#Cc1ccccc1S(=O)(=O)N1CCC2(CC1)OCCN2S(=O)(=O)c1ccccc1C#N` [Compound C0004], the “% DAMGO + BFNA” value was found to be 99.7%.

Still in this assay, the particulars now being: Series C-1; 1 μM compound, relative to DAMGO.
For `O=C(c1ccc([N+](=O)[O-])cc1)N1CCC2(CC1)OCCN2C(=O)c1ccc([N+](=O)[O-])cc1` [Compound C0032], the “% DAMGO (1 μM)” value is on record as 87.3%.

In the case of `N#Cc1ccccc1S(=O)(=O)N1CCC2(CC1)OCCN2S(=O)(=O)c1ccccc1C#N` [Compound C0004], the “% DAMGO (1 μM)” value is reported as 85.4%.

Still in this assay, the particulars now being: Series C-1; 1 μM compound; [35S]GTPγS binding to Gαo, striatal membranes.
Turning to `O=C(c1ccc([N+](=O)[O-])cc1)N1CCC2(CC1)OCCN2C(=O)c1ccc([N+](=O)[O-])cc1` [Compound C0032], the “Concentration of FLNA-Binding Compound as Agonist 1 μM” value amounted to 202.0%.

On to `N#Cc1ccccc1S(=O)(=O)N1CCC2(CC1)OCCN2S(=O)(=O)c1ccccc1C#N` [Compound C0004], for which the “Concentration of FLNA-Binding Compound as Agonist 1 μM” value is 228.4%.

Still in this assay, the particulars now being: Series C-2; 0.1 μM compound, relative to DAMGO.
In the case of `C=CCN1CCC2(CC1)OCCN2S(=O)(=O)c1ccc(OC)cc1` [Compound C0091M], the “% DAMGO (0.1 μM)” value worked out at 118.1%.

The assay is the same for the next values; noted with them: Series C-2; 0.1 μM compound; [35S]GTPγS binding to Gαo, striatal membranes.
As to `C=CCN1CCC2(CC1)OCCN2S(=O)(=O)c1ccc(OC)cc1` [Compound C0091M], the “MOR agonist activity, percent” value came to 207.9%.

Staying with this assay, now noted: Series C-2; 1 μM compound + 1 μM β-FNA.
For `C=CCN1CCC2(CC1)OCCN2S(=O)(=O)c1ccc(OC)cc1` [Compound C0091M], the “MOR agonist activity, percent” value is listed as 80.8%.

Still in this assay, the particulars now being: Series C-2; 1 μM compound + β-FNA, relative to DAMGO + BFNA.
Regarding `C=CCN1CCC2(CC1)OCCN2S(=O)(=O)c1ccc(OC)cc1` [Compound C0091M], the “% DAMGO + BFNA” value was determined as 367.3%.

The same assay, now with this note: Series C-2; 1 μM compound, relative to DAMGO.
With `C=CCN1CCC2(CC1)OCCN2S(=O)(=O)c1ccc(OC)cc1` [Compound C0091M], the “% DAMGO (1 μM)” value came to 108.5%.

Still in this assay, the particulars now being: Series C-2; 1 μM compound; [35S]GTPγS binding to Gαo, striatal membranes.
Turning to `C=CCN1CCC2(CC1)OCCN2S(=O)(=O)c1ccc(OC)cc1` [Compound C0091M], the “MOR agonist activity, percent” value is recorded as 274.4%.
